{
  "source": "ChEMBL document CHEMBL1201862",
  "about": "“PubChem BioAssay data set” (2004)",
  "key": {"[1]": {"target": "T1, Peroxisome proliferator-activated receptor gamma (Homo sapiens, UniProt P37231)", "T1 sequence (P37231 whole entry)": "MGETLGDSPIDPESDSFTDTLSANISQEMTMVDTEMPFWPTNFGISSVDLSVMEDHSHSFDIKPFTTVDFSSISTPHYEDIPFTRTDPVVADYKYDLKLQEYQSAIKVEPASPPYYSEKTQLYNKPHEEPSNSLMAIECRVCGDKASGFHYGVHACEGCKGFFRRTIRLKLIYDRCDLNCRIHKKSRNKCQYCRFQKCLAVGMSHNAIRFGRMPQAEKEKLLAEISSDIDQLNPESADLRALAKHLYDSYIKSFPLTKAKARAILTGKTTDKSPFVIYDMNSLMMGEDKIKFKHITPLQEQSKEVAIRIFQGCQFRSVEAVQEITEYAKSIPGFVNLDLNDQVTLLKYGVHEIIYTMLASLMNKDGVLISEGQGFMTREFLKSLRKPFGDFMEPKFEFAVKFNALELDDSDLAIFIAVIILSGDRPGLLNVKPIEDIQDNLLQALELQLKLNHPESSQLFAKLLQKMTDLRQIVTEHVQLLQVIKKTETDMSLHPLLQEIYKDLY", "test": "PPARg transcriptional activation, reporter cells – cell-based, luminescence, assay provider, dose response (AID 504447)", "assay_type": "functional"}, "[2]": {"target": "T1, Peroxisome proliferator-activated receptor gamma", "test": "competitive ligand displacement at PPARg – biochemical, TR-FRET, LanthaScreen, PPARg partial agonist project, dose response (AID 504446)"}, "[3]": {"target": "T1, Peroxisome proliferator-activated receptor gamma", "test": "competitive ligand displacement at PPARg – biochemical, fluorescence polarization, PolarScreen, PPARg partial agonist project, dose response (AID 504453)"}, "[4]": {"target": "G-protein coupled receptor 55 (Homo sapiens, UniProt Q9Y2T6)", "sequence (Q9Y2T6 whole entry)": "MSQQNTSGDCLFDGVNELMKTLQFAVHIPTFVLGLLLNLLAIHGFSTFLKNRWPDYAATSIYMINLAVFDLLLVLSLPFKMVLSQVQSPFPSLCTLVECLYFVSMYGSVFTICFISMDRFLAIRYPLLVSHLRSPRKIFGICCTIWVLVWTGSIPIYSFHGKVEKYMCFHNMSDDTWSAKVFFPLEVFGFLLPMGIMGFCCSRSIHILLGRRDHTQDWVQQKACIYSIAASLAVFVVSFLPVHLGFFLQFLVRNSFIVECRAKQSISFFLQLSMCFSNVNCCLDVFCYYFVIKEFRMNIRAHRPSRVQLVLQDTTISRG", "test": "inhibition of LPI-stimulated GPR55 beta-arrestin translocation – imaging, U2OS, beta-arrestin-GFP, LPI agonist, primary screen (AID 2013);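 further: antagonist potency measured as reduced agonist-driven arrestin aggregation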", "assay_type": "functional"}, "Bcl-2-related protein A1": {"target": "T2, Bcl-2-related protein A1 (Mus musculus, UniProt Q07440)", "T2 sequence (Q07440 whole entry)": "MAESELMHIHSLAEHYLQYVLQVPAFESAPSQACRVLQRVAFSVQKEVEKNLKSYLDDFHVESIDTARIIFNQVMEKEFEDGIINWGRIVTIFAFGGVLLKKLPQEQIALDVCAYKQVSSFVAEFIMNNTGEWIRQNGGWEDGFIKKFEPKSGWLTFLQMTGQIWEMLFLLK", "assay_type": "functional"}, "[5]": {"target": "T3, Ubiquitin-conjugating enzyme E2 N (Homo sapiens, UniProt P61088)", "T3 sequence (P61088 whole entry)": "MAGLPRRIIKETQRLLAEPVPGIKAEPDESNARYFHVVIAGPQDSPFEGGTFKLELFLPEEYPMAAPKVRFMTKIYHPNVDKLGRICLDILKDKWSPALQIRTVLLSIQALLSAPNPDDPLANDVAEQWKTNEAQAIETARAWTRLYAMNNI", "assay_type": "functional"}, "[6]": {"target": "T3, Ubiquitin-conjugating enzyme E2 N", "assay_type": "functional", "remark": "listed apart in the source"}, "[7]": {"target": "T4, Delta-type opioid receptor (Homo sapiens, UniProt P41143)", "T4 sequence (P41143 whole entry)": "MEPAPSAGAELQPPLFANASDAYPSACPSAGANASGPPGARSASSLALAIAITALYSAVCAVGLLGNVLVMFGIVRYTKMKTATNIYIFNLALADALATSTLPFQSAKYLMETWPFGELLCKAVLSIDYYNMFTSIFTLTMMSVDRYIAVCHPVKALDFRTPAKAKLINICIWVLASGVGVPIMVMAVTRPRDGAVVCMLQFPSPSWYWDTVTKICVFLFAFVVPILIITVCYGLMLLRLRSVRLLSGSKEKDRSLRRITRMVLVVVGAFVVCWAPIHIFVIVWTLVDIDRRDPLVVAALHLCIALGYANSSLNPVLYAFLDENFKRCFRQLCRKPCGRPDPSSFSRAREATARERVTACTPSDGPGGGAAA", "test": "HTS Image-Based Screen for Agonists of the DOR Receptor. [Related pubchem assays (depositor defined):AID1777, AID1786, AID2133]", "assay_type": "functional"}, "[8]": {"target": "Melanin-concentrating hormone receptor 1 (Homo sapiens, UniProt Q99705)", "sequence (Q99705 whole entry)": "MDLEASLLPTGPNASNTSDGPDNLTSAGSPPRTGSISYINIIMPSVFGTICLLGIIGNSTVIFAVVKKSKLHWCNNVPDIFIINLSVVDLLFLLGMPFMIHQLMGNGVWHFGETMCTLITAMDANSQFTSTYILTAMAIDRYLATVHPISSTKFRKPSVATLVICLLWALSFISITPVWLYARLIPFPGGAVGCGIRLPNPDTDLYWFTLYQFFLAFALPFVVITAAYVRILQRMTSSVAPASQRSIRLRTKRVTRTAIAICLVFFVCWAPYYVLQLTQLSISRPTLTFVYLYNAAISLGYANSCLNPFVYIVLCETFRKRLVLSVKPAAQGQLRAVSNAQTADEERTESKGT", "test": "Fluorescence-based counterscreen for antagonists of the G-protein coupled receptor 7 (GPR7): cell-based high throughput dose response assay to identify antagonists of the melanin-concentrating hormone receptor 1 (MCHR1).", "assay_type": "functional"}, "[9]": {"target": "T5, Neuropeptides B/W receptor type 1 (Homo sapiens, UniProt P48145)", "T5 sequence (P48145 whole entry)": "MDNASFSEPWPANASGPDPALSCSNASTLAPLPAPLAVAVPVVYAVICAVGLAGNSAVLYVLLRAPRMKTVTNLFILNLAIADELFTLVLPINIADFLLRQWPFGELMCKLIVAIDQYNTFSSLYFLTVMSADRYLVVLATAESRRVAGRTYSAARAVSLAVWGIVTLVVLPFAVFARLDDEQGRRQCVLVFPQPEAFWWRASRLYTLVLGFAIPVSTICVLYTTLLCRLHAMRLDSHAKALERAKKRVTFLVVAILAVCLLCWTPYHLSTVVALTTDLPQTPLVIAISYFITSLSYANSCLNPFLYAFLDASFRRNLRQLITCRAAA", "test": "Fluorescence-based dose response cell-based high throughput screening assay to identify antagonists of the G-protein coupled receptor 7 (GPR7). [Related pubchem assays: 1952 (Screening assay (GPR7 antagonists).), 1880 (Summary AID.)]", "assay_type": "functional"}, "[10]": {"target": "T4, Delta-type opioid receptor", "test": "HTS Image-Based Screen for Antagonists of the DOR Receptor. [Related pubchem assays (depositor defined):AID1777, AID1785, AID1786, AID2133]", "assay_type": "functional"}, "[11]": {"target": "T6, Heat shock factor protein 1 (Mus musculus, UniProt P38532)", "T6 sequence (P38532 whole entry)": "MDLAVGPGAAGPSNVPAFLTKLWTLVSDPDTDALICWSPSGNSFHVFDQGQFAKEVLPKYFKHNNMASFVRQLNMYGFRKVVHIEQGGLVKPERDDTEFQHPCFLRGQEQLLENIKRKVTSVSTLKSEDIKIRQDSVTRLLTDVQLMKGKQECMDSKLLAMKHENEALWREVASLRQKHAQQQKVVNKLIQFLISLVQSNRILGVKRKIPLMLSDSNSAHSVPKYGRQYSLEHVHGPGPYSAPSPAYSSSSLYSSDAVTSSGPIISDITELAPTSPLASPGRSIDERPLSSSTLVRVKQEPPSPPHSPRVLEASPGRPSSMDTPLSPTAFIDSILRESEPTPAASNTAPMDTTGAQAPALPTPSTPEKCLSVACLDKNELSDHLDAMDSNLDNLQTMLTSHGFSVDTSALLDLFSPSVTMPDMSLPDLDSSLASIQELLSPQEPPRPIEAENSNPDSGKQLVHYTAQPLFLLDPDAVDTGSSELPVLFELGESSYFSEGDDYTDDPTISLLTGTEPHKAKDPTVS", "test": "enhancement of HSF1-driven luciferase signal – cell-based, NIH3T3, luminescence, dose retest, confirmation (AID 435004);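 further: stress induced by proteasome inhibitor MG132 added 30 min after compound; actives raise luminescence as potentiators of the MG132 stress response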", "assay_type": "functional"}, "Mu-type opioid receptor": {"target": "Mu-type opioid receptor (Homo sapiens, UniProt P35372)", "sequence (P35372 whole entry)": "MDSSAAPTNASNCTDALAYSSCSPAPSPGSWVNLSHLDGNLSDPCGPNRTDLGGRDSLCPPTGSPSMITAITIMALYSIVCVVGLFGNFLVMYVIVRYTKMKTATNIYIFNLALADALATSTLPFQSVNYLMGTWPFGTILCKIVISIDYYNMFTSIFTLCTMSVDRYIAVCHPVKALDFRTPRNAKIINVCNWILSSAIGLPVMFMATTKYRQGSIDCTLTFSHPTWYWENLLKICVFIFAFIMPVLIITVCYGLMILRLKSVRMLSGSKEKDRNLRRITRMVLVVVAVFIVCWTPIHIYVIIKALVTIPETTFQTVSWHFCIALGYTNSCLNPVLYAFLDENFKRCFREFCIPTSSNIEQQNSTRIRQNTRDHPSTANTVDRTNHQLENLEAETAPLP", "test": "HTS Image-Based Screen for Agonists of the MOR Receptor. [Related pubchem assays (depositor defined):AID1777, AID1785, AID1786, AID2133]", "assay_type": "functional"}, "[12]": {"target": "T7, Kappa-type opioid receptor (Homo sapiens, UniProt P41145)", "T7 sequence (P41145 whole entry)": "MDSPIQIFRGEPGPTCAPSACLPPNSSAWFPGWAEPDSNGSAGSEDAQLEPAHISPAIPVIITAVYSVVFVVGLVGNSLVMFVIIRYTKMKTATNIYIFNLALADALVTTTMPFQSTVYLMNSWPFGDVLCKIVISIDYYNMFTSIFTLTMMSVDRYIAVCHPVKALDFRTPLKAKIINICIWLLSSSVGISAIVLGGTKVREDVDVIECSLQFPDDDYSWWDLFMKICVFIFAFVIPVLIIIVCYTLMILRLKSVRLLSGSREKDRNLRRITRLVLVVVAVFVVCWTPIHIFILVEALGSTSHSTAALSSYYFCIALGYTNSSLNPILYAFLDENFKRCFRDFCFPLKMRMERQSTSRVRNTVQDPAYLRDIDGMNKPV", "assay_type": "functional"}, "[13]": {"target": "T7, Kappa-type opioid receptor", "assay_type": "functional", "remark": "listed apart in the source"}, "[14]": {"target": "E3 ubiquitin-protein ligase XIAP (Homo sapiens, UniProt P98170)", "sequence (P98170 whole entry)": "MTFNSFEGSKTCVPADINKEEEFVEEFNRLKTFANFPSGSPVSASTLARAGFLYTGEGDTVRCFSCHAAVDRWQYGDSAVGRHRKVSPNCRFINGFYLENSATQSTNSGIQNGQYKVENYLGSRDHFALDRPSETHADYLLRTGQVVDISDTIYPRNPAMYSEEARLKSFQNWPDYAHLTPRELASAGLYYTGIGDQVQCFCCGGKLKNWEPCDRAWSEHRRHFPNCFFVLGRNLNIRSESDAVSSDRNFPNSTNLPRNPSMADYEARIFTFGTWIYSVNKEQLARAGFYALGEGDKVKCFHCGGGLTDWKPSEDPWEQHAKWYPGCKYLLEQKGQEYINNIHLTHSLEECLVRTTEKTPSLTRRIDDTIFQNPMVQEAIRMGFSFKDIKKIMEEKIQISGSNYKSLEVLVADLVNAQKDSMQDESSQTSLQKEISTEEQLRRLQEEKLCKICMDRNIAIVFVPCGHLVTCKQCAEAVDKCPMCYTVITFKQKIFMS", "test": "Counter Screen using XIAP-Bir3 for Chemical Antagonists of Bir1/2 domains of IAP-family anti-apoptotic proteins. [Related pubchem assays (depositor defined):AID1018, AID1449, AID1514, AID1638, AID1749, AID1750, AID488957, AID488963]"}, "Coagulation factor XII": {"target": "Coagulation factor XII (Homo sapiens, UniProt P00748)", "sequence (P00748 20-372 limits assumed)": "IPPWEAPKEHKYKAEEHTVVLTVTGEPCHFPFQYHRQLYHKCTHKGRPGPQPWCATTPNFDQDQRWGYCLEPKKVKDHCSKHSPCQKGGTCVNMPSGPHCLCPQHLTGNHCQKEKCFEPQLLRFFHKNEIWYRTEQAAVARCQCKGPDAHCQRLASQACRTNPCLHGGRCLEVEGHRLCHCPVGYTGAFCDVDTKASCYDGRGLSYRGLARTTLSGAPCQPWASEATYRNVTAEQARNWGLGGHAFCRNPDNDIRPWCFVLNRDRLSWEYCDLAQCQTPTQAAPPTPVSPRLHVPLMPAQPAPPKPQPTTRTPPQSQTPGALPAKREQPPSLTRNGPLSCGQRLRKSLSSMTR", "sequence (P00748 373-615 limits assumed)": "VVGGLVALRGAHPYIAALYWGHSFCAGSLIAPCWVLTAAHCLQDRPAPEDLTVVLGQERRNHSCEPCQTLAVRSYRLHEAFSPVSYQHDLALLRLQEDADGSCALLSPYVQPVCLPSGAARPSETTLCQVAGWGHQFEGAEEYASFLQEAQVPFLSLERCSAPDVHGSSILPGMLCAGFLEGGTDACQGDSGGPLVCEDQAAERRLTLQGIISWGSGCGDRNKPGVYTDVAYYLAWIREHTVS", "assay_type": "functional"}},
  "note": "The source made the active and inactive calls.",
  "data": [
    {"smiles": "CCn1cnc2c1c(=O)n(Cc1cccc([N+](=O)[O-])c1)c(=O)n2Cc1ccccc1", "values": [
      {"measurement": "EC50", "setting": "[1]", "result": "0.181 µM (active)"},
      {"measurement": "IC50", "setting": "[2]", "result": "0.6 µM (active)"},
      {"measurement": "IC50", "setting": "[3]", "result": "0.173 µM (active)"}
    ]},
    {"smiles": "C[C@H](NC(=O)c1nc[nH]c1C(=O)Nc1ccc(CNC(=O)OC(C)(C)C)cc1)C(=O)OC(C)(C)C", "values": [
      {"measurement": "IC50", "setting": "[4]", "result": "2.55 µM (active)"}
    ]},
    {"smiles": "CCCCN=C(S)N=Nc1c(O)[nH]c2ccccc12", "values": [
      {"measurement": "IC50", "setting": "Bcl-2-related protein A1", "result": "> 20 µM (inactive)"},
      {"measurement": "IC50", "setting": "[5]", "result": "8.6 µM (active)"},
      {"measurement": "IC50", "setting": "[6]", "result": "5.96 µM (active)"}
    ]},
    {"smiles": "O=C(c1ccccn1)N(Cc1ccco1)C1(C(=O)NC2CCCC2)CCCCC1", "values": [
      {"measurement": "EC50", "setting": "[7]", "result": "> 32 µM (inactive)"},
      {"measurement": "IC50", "setting": "[8]", "result": "> 43.8 µM (not active)"},
      {"measurement": "IC50", "setting": "[9]", "result": "> 43.8 µM (not active)"},
      {"measurement": "IC50", "setting": "[10]", "result": "> 32 µM (inactive)"},
      {"measurement": "EC50", "setting": "[11]", "result": "> 260 µM (inactive)"},
      {"measurement": "EC50", "setting": "Mu-type opioid receptor", "result": "> 32 µM (inactive)"},
      {"measurement": "EC50", "setting": "[12]", "result": 14.6, "unit": "µM"},
      {"measurement": "EC50", "setting": "[13]", "result": 12.3, "unit": "µM"}
    ]},
    {"smiles": "O=C(Nc1ccc(Br)cc1)c1ccc(N2C(=O)C3CC=CCC3C2=O)cc1", "note": "(configuration not stated)", "values": [
      {"measurement": "IC50", "setting": "[14]", "result": "> 20 µM (inactive)"}
    ]},
    {"smiles": "Cc1ccc(S(=O)(=O)CCN2C=CC(C(F)(F)F)=NCC2)cc1", "values": [
      {"measurement": "IC50", "setting": "Coagulation factor XII", "result": "> 50 µM (inactive)"}
    ]}
  ]
}
